Measurements published in patent publication US20070203121A1, “SUBSTITUTED INDOLE COMPOUNDS, THEIR PREPARATION AND USE IN MEDICAMENTS” (LABORATORIOS DEL DR. ESTEVE S.A, priority 2004, published 2007).

Biological target: T1, 5HT6-human recombinant receptor (Homo sapiens, UniProt P50406)
T1 construct: purchased Receptor Biology; host or cells: HEK-293 cells (membranes)
Test: Binding to Serotonin Receptor 5-HT6 ([3H]-LSD displacement)
Details: membranes of HEK-293 cells expressing the receptor; radioligand [3H]-LSD 2.7 nM; 60 minutes at 37° C.; triplicate
Experimental: I) Binding to Serotonin Receptor 5-HT6
Cell membranes of HEK-293 cells expressing the 5HT6-human recombinant receptor were supplied by Receptor Biology. In said membranes the receptor concentration is 2.18 pmol/mg protein and the protein concentration is 9.17 mg/ml. The experimental protocol follows the method of B. L. Roth et al. [B. L. Roth, S. C. Craigo, M. S. Choudhary, A. Uluer, F. J. Monsma, Y. Shen, H. Y. Meltzer, D. R. Sibley: Binding of Typical and Atypical Antipsychotic Agents to 5-Hydroxytryptamine-6 and Hydroxytryptamine-7 Receptors. The Journal of Pharmacology and Experimental Therapeutics, 1994, 268, 1403] with the following slight changes. The respective part of the literature description is hereby incorporated by reference and forms part of the disclosure.
The commercial membrane is diluted (1:40 dilution) with the binding buffer: 50 mM Tris-HCl, 10 mM MgCl2, 0.5 mM EDTA (pH 7.4). The radioligand used is [^3H]-LSD at a concentration of 2.7 nM with a final volume of 200 μl. Incubation is initiated by adding 100 μl of membrane suspension, (≈22.9 μg membrane protein), and is prolonged for 60 minutes at a temperature of 37° C. The incubation is ended by fast filtration in a Brandel Cell Harvester through fiber glass filters made by Schleicher & Schuell GF 3362 pretreated with a solution of polyethylenimine at 0.5%. The filters are washed three times with three milliliters of buffer Tris-HCl 50 mM pH 7.4. The filters are transferred to flasks and 5 ml of Ecoscint H liquid scintillation cocktail are added to each flask. The flasks are allowed to reach equilibrium for several hours before counting with a Wallac Winspectral 1414 scintillation counter. Non-specific binding is determined in the presence of 100 μM of serotonin. Tests were made in triplicate. The inhibition constants (Ki, nM) were calculated by non-linear regression analysis using the program EBDA/LIGAND described in Munson and Rodbard, Analytical Biochemistry, 1980, 107, 220, the respective part of which is hereby incorporated by reference and forms part of the disclosure.
The binding of the substituted indole compounds to the 5-HT6 receptor was determined as described above.

T1 sequence (P50406 whole entry): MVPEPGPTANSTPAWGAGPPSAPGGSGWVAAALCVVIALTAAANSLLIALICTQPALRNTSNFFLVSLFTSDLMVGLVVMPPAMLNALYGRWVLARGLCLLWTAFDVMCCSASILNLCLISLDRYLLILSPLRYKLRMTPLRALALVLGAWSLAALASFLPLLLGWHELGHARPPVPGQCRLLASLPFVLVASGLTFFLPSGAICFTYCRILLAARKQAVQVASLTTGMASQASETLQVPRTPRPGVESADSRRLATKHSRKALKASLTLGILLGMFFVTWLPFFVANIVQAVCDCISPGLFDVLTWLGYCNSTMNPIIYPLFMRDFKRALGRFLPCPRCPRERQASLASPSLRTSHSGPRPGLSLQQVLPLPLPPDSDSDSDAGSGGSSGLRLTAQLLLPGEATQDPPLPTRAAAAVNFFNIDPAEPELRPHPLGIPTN

Ki [nM] | Compound
18.4 | CN(C)C(=O)C(=O)c1c[nH]c2ccc(NS(=O)(=O)c3c(Cl)nc4sccn34)cc12 [Example 10, 2-[5-(6-Chloro-imidazo[2,1-b]thiazole-5-sulfonylamino)-1H-indol-3-yl]-N,N-dimethyl-2-oxo-acetamide]
161 | CN(C)C(=O)C(=O)c1c[nH]c2cccc(NS(=O)(=O)c3c(Cl)nc4sccn34)c12 [Example 13, 2-[4-(6-Chloro-imidazo[2,1-b]thiazole-5-sulfonylamino)-1H-indol-3-yl]-N,N-dimethyl-2-oxo-acetamide]

More lines, now with the values behind:

Compound | Ki [nM]
CCN(CC)C(=O)C(=O)c1c[nH]c2ccc(NS(=O)(=O)c3c(Cl)nc4sccn34)cc12 [Example 9, 2-[5-(6-Chloro-imidazo[2,1-b]thiazole-5-sulfonylamino)-1H-indol-3-yl]-N,N-diethyl-2-oxo-acetamide] | 224
CN(C)C(=O)C(=O)c1c[nH]c2ccc(NS(=O)(=O)c3ccc(Oc4ccccc4)cc3)cc12 [Example 20, N,N-Dimethyl-2-[5-[(4-phenoxy-phenyl)-1-sulfonylamino]-1H-indol-3-yl]-2-oxo-acetamide] | 113
Cc1[nH]c2ccc(NS(=O)(=O)c3c(Cl)nc4sccn34)cc2c1C(=O)C(=O)N(C)C [Example 22, 2-(5-(6-chloroimidazo[2,1-b]thiazole-5-sulfonamido)-2-methyl-1H-indol-3-yl)-N,N-dimethyl-2-oxoacetamide] | 52.8
